According to patent publication US12201629B2 (priority 2017, dated 2025):

Assay: Example 2: pharmacokinetics of oral and intravenous buprenorphine hydrochloride under naltrexone blockade
Settings: injection, equimolar to 0.3 mg buprenorphine base, over 15 min; n = 8

CO[C@@]12CC[C@@]3(C[C@@H]1[C@](C)(O)C(C)(C)C)[C@H]1Cc4ccc(O)c5c4[C@@]3(CCN1CC1CC1)[C@H]2O5.Cl [Buprenorphine i.v., Buprenorphine HCl]
Buprenorphine Mean Cmax: 4.26 ng/mL | Buprenorphine Mean Tmax: 20.2 min
